Reference: patent US9511143B2, “Aqueous compositions comprising arbekacin” (Meiji Seika Pharma Co., Ltd., priority 2011, dated 2016)

Tests used:
P. aeruginosa MSC17707 = test: Experimental pneumonia caused by Pseudomonas aeruginosa in neutropenic mice, inhalation therapy; assay type: in vivo; conditions: for viable cell counts in the lung in comparison to the non-treatment control group: all the dose levels; for Number of intrapulmonary viable cells: 5 min inhalation 2 h after infection, count 20 h after infection, neutropenic mice, mean ± SD
Procedure: The therapeutic effect of arbekacin inhalation on experimental pneumonia in neutropenic mice, caused by P. aeruginosa, was compared with the therapeutic effect of amikacin and tobramycin.
Cyclophosphamide (Sigma-Aldrich Co.) was dissolved in physiological saline. Four to five week-old Crlj:CD1(ICR) male mice were immunosuppressed by intraperitoneal injection of 150 and 100 mg/kg of cyclophosphamide solution 4 days and 1 day before infection, respectively. Thereafter, pulmonary infection was induced by intranasal inoculation of amikacin- and tobramycin-resistant P. aeruginosa having the aac(6)-lae encoding an aminoglycoside modifying enzyme. The antibiotics dissolved in saline were administered to each mouse using an electronic vibrating membrane nebulizer (eFlow®, PARI Pharma GmbH, spray flow rate: approximately 0.5 ml/min) two hours after the infection, and viable cells per lung were counted 20 hours after the infection. As for the doses of arbekacin, three levels were set at 3, 10 and 30 mg/ml, and the respective doses of amikacin and tobramycin were at three levels of 10, 30, and 100 mg/ml. The inhalation duration was five minutes. Meanwhile, physiological saline was administered to a non-treatment control group.

guinea pigs = system: guinea pigs; parameters: species or system guinea pig (male Hartley strain); conditions: guinea pig, in vivo
Procedure: A guinea-pig cough induction model was used to investigate differences in cough induction between the sulfate and hydrochloride forms of arbekacin. The tested substances were commercially available arbekacin sulfate (ABK—H2SO4) and arbekacin hydrochloride (ABK—HCl) that was prepared from arbekacin free base according to the method described in Example 2. The concentration of dosing solutions was set to be 25 mg/ml. In addition, physiological saline was used as a negative control agent whereas citric acid (30 mg/ml) was used as a positive control agent.
Male Hartley strain guinea pigs were subjected to the experiment, with 10 animals per group. […] Cough was detected on the basis of the following indicators: observation of symptoms, analysis of a respiration pattern in the soma-side by a double-flow plethysmograph method using a multi-functional respiration measuring device (Win Pulmos-I, M-I-P-S Corporation), and pressure changes in head-side and soma-side chambers measured by a pressure transducer (blood pressure monitoring kit, Japan Becton, Dickinson and Company). The case, in which a motion of coughing in the symptom observation was noted together with typical changes in the pressure in the head-side and soma-side chambers and in the respiration pattern of the soma side at the time of coughing, was determined to be a cough reflex. […] Then, the occurrence of cough reflex was counted. […]

SMILES | viable cell counts in the lung in comparison to the non-treatment control group (P. aeruginosa MSC17707) | Number of intrapulmonary viable cells (P. aeruginosa MSC17707; level of drug 10 mg/ml) [log10 CFU/lung] | Number of intrapulmonary viable cells (P. aeruginosa MSC17707; level of drug 30 mg/ml) [log10 CFU/lung] | Number of intrapulmonary viable cells (P. aeruginosa MSC17707; level of drug 100 mg/ml) [log10 CFU/lung] | Number of intrapulmonary viable cells (P. aeruginosa MSC17707; level of drug 3 mg/ml) [log10 CFU/lung] | therapeutic effect compared to amikacin and tobramycin (P. aeruginosa MSC17707; same dosage (10 or 30 mg/ml)) | number of occurrence of cough reflex / cough induction, comparison between groups (guinea pigs)
NCC[C@H](O)C(=O)N[C@@H]1C[C@H](N)[C@@H](O[C@H]2O[C@H](CN)[C@@H](O)[C@H](O)[C@H]2O)[C@H](O)[C@H]1O[C@H]1O[C@H](CO)[C@@H](O)[C@H](N)[C@H]1O [Amikacin, amikacin] | significantly decreased | 5.65 ± 1.55 | 4.46 ± 1.68 | 2.65 ± 1.74 |  |  | 
NCC[C@H](O)C(=O)N[C@@H]1C[C@H](N)[C@@H](O[C@H]2O[C@H](CN)CC[C@H]2N)[C@H](O)[C@H]1O[C@H]1O[C@H](CO)[C@@H](O)[C@H](N)[C@H]1O [Arbekacin, arbekacin] | significantly decreased | 2.20 ± 0.99 | 1.98 ± 0.83 |  | 4.07 ± 2.18 | significantly superior | 
NC[C@H]1O[C@H](O[C@H]2[C@H](O)[C@@H](O[C@H]3O[C@H](CO)[C@@H](O)[C@H](N)[C@H]3O)[C@H](N)C[C@@H]2N)[C@H](N)C[C@@H]1O [Tobramycin, tobramycin] | significantly decreased | 5.74 ± 1.57 | 3.48 ± 1.85 | 3.53 ± 1.88 |  |  | 
O=C(O)CC(O)(CC(=O)O)C(=O)O [Citric Acid, citric acid] |  |  |  |  |  |  | significantly higher
